Experiments:
Paclitaxel = compound: CC(=O)O[C@H]1C(=O)[C@@]2(C)[C@H]([C@H](OC(=O)c3ccccc3)[C@]3(O)C[C@H](OC(=O)[C@H](O)[C@@H](NC(=O)c4ccccc4)c4ccccc4)C(C)=C1C3(C)C)[C@]1(OC(C)=O)CO[C@@H]1C[C@@H]2O [Paclitaxel]
Ipatasertib/GDC0068 = compound: CC(C)NC[C@@H](C(=O)N1CCN(c2ncnc3c2[C@H](C)C[C@H]3O)CC1)c1ccc(Cl)cc1 [Ipatasertib/GDC0068]
Luminespib/NVP-AUY922 = compound: CCNC(=O)c1noc(-c2cc(C(C)C)c(O)cc2O)c1-c1ccc(CN2CCOCC2)cc1 [Luminespib/NVP-AUY922]
BSJ-01-175 = compound: CN(C)C/C=C/C(=O)Nc1ccc(O[C@@H]2CCC[C@@H](Nc3ncc(Cl)c(-c4c[nH]c5ccccc45)n3)C2)cc1 [BSJ-01-175]
ABT-737 = compound: CN(C)CC[C@H](CSc1ccccc1)Nc1ccc(S(=O)(=O)NC(=O)c2ccc(N3CCN(Cc4ccccc4-c4ccc(Cl)cc4)CC3)cc2)cc1[N+](=O)[O-] [ABT-737]
Flavopiridol [1] = compound: T1, CN1CC[C@H](c2c(O)cc(O)c3c(=O)cc(-c4ccccc4Cl)oc23)[C@H](O)C1 [Flavopiridol]
Doxorubicin = compound: COc1cccc2c1C(=O)c1c(O)c3c(c(O)c1C2=O)C[C@@](O)(C(=O)CO)C[C@@H]3O[C@H]1C[C@H](N)[C@H](O)[C@H](C)O1 [Doxorubicin]
Taselisib/GDC0032 = compound: Cc1nc(-c2cn3c(n2)-c2ccc(-c4cnn(C(C)(C)C(N)=O)c4)cc2OCC3)n(C(C)C)n1 [Taselisib/GDC0032]
Olaparib/AZD2281 = compound: O=C(c1cc(Cc2n[nH]c(=O)c3ccccc23)ccc1F)N1CCN(C(=O)C2CC2)CC1 [Olaparib/AZD2281]
YKL-5-124 = compound: C=CC(=O)Nc1ccc(C(=O)Nc2[nH]nc3c2CN(C(=O)N[C@H](CN(C)C)c2ccccc2)C3(C)C)cc1 [YKL-5-124]; assay: GR value, 72 h; higher = faster growth (1 = untreated, <0 = killing);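 further: breast cancer and non-malignant breast epithelial lines, nine half-log doses, viable cells counted by Hoechst and LIVE/DEAD dye imaging versus time-zero plates and DMSO controls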
BSJ-03-123 = compound: CC(=O)c1c(C)c2cnc(Nc3ccc(N4CCN(CCOCCOCCOCCNC(=O)COc5cccc6c5C(=O)N(C5CCC(=O)NC5=O)C6=O)CC4)cn3)nc2n(C2CCCC2)c1=O [BSJ-03-123]; assay: as above
[2] = compound: CC(=O)c1c(C)c2cnc(Nc3ccc(N4CCNCC4)cn3)nc2n(C2CCCC2)c1=O; assay: as above
[3] = compound: CCN1CCN(Cc2ccc(Nc3ncc(F)c(-c4cc(F)c5nc(C)n(C(C)C)c5c4)n3)nc2)CC1; assay: as above
[4] = compound: CCc1cnn2c(NCc3ccc[n+]([O-])c3)cc(N3CCCC[C@H]3CCO)nc12; assay: as above
LEE011/Ribociclib = compound: CN(C)C(=O)c1cc2cnc(Nc3ccc(N4CCNCC4)cn3)nc2n1C1CCCC1 [LEE011/Ribociclib]; assay: as above
THZ531 = compound: CN(C)C/C=C/C(=O)Nc1ccc(C(=O)N2CCC[C@@H](Nc3ncc(Cl)c(-c4c[nH]c5ccccc45)n3)C2)cc1 [THZ531]; assay: as above
Flavopiridol [5] = compound: T1, Flavopiridol; assay: as above
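Wherever GR50, 72 h is given: breast cancer and non-malignant breast epithelial cell lines, Deep Dye Drop or Dye Drop imaging, nine half-log doses, GR normalized to time-zero plates and DMSO-only controls.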

Which results are given for MDAMB175VII?
GR50, 72 h (Paclitaxel): 0.00295 µM; GR50, 72 h (Ipatasertib/GDC0068): 0.22 µM; GR50, 72 h (Luminespib/NVP-AUY922): 0.00398 µM; GR50, 72 h (BSJ-01-175): 0.00586 µM; GR50, 72 h (ABT-737): 4.58 µM; GR50, 72 h (Flavopiridol [1]): 0.0523 µM; GR50, 72 h (Doxorubicin): 0.00311 µM; GR50, 72 h (Taselisib/GDC0032): 0.00272 µM; GR50, 72 h (Olaparib/AZD2281): 9.32 µM; GR value (YKL-5-124; 0.001 µM): 0.0803 GR; GR value (YKL-5-124; 0.003162 µM): 0.0736 GR; GR value (YKL-5-124; 0.01 µM): 0.0488 GR; GR value (YKL-5-124; 0.03162 µM): 0.076 GR; GR value (YKL-5-124; 0.1 µM): 0.0075 GR; GR value (YKL-5-124; 0.3162 µM): 0.118 GR; GR value (YKL-5-124; 1 µM): -0.0042 GR; GR value (YKL-5-124; 3.162 µM): 0.0879 GR; GR value (YKL-5-124; 10 µM): -0.754 GR; GR value (BSJ-03-123; 0.001 µM): 0.829 GR; GR value (BSJ-03-123; 0.003162 µM): 0.79 GR; GR value (BSJ-03-123; 0.01 µM): 0.713 GR; GR value (BSJ-03-123; 0.03162 µM): 0.688 GR; GR value (BSJ-03-123; 0.1 µM): 0.734 GR; GR value (BSJ-03-123; 0.3162 µM): 0.573 GR; GR value (BSJ-03-123; 1 µM): 0.378 GR; GR value (BSJ-03-123; 3.162 µM): 0.262 GR; GR value (BSJ-03-123; 10 µM): 0.0206 GR; GR value ([2]; 0.0003162 µM): 0.695 GR; GR value ([2]; 0.001 µM): 0.582 GR; GR value ([2]; 0.003162 µM): 0.689 GR; GR value ([2]; 0.01 µM): 0.453 GR; GR value ([2]; 0.03162 µM): 0.156 GR; GR value ([2]; 0.1 µM): -0.0684 GR; GR value ([2]; 0.3162 µM): -0.0381 GR; GR value ([2]; 1 µM): -0.0455 GR; GR value ([2]; 3.162 µM): -0.158 GR; GR value ([3]; 0.001 µM): 0.725 GR; GR value ([3]; 0.003162 µM): 0.505 GR; GR value ([3]; 0.01 µM): 0.0712 GR; GR value ([3]; 0.03162 µM): 0.105 GR; GR value ([3]; 0.1 µM): 0.0173 GR; GR value ([3]; 0.3162 µM): 0.0287 GR; GR value ([3]; 1 µM): -0.0111 GR; GR value ([3]; 3.162 µM): -0.0725 GR; GR value ([3]; 10 µM): -0.173 GR; GR value ([4]; 0.0001 µM): 1.09 GR; GR value ([4]; 0.0003162 µM): 1.07 GR; GR value ([4]; 0.001 µM): 1.14 GR; GR value ([4]; 0.003162 µM): 1.23 GR; GR value ([4]; 0.01 µM): 0.742 GR; GR value ([4]; 0.03162 µM): -0.651 GR; GR value ([4]; 0.1 µM): -0.516 GR; GR value ([4]; 0.3162 µM): -0.49 GR; GR value ([4]; 1 µM): -0.497 GR; GR value (LEE011/Ribociclib; 0.001 µM): 0.4 GR; GR value (LEE011/Ribociclib; 0.003162 µM): 0.267 GR; GR value (LEE011/Ribociclib; 0.01 µM): 0.288 GR; GR value (LEE011/Ribociclib; 0.03162 µM): 0.15 GR; GR value (LEE011/Ribociclib; 0.1 µM): 0.195 GR; GR value (LEE011/Ribociclib; 0.3162 µM): 0.0606 GR; GR value (LEE011/Ribociclib; 1 µM): 0.0351 GR; GR value (LEE011/Ribociclib; 3.162 µM): 0.19 GR; GR value (LEE011/Ribociclib; 10 µM): 0.192 GR; GR value (THZ531; 0.0001 µM): 0.885 GR; GR value (THZ531; 0.0003162 µM): 0.884 GR; GR value (THZ531; 0.001 µM): 0.841 GR; GR value (THZ531; 0.003162 µM): 0.919 GR; GR value (THZ531; 0.01 µM): 1 GR; GR value (THZ531; 0.03162 µM): 0.677 GR; GR value (THZ531; 0.1 µM): -0.409 GR; GR value (THZ531; 0.3162 µM): -0.673 GR; GR value (THZ531; 1 µM): -0.403 GR; GR value (Flavopiridol [5]; 0.0001 µM): 0.962 GR; GR value (Flavopiridol [5]; 0.0003162 µM): 1 GR; GR value (Flavopiridol [5]; 0.001 µM): 0.765 GR; GR value (Flavopiridol [5]; 0.003162 µM): 0.721 GR; GR value (Flavopiridol [5]; 0.01 µM): 0.675 GR; GR value (Flavopiridol [5]; 0.03162 µM): 0.748 GR; GR value (Flavopiridol [5]; 0.1 µM): 0.442 GR; GR value (Flavopiridol [5]; 0.3162 µM): -0.175 GR; GR value (Flavopiridol [5]; 1 µM): -0.302 GR
